According to patent US8217048B2, “Inhibitors of serine proteases, particularly HCV NS3-NS4A protease” (Vertex Pharmaceuticals Incorporated, priority 2003, dated 2012):

Key:
[1] = tested on: Cells containing hepatitis C virus (HCV) replicon; assay: HCV Replicon Cell Assay (Example 4); assay type: cell-based; details: 48 h, tested according to Example 4 (cell), 50% inhibition of HCV RNA level, 48-hour incubation
Description: HCV Replicon Cell Assay Protocol
Cells containing hepatitis C virus (HCV) replicon were maintained in DMEM containing 10% fetal bovine serum (FBS), 0.25 mg per ml of G418, with appropriate supplements (media A).
On day 1, replicon cell monolayer was treated with a trypsin:EDTA mixture, removed, and then media A was diluted into a final concentration of 100,000 cells per ml wit. 10,000 cells in 100 ul were plated into each well of a 96-well tissue culture plate, and cultured overnight in a tissue culture incubator at 37° C.
On day 2, compounds (in 100% DMSO) were serially diluted into DMEM containing 2% FBS, 0.5% DMSO, with appropriate supplements (media B). The final concentration of DMSO was maintained at 0.5% throughout the dilution series.
Media on the replicon cell monolayer was removed, and then media B containing various concentrations of compounds was added. Media B without any compound was added to other wells as no compound controls.
Cells were incubated with compound or 0.5% DMSO in media B for 48 hours in a tissue culture incubator at 37° C. At the end of the 48-hour incubation, the media was removed, and the replicon cell monolayer was washed once with PBS and stored at −80° C. prior to RNA extraction.
Culture plates with treated replicon cell monolayers were thawed, and a fixed amount of another RNA virus, such as Bovine Viral Diarrhea Virus (BVDV) was added to cells in each well, RNA extraction reagents (such as reagents from RNeasy kits) were added to the cells immediately to avoid degradation of RNA. Total RNA was extracted according the instruction of manufacturer with modification to improve extraction efficiency and consistency. Finally, total cellular RNA, including HCV replicon RNA, was eluted and stored at −80° C. until further processing.
A Taqman real-time RT-PCR quantification assay was set up with two sets of specific primers and probe. One was for HCV and the other was for BVDV. Total RNA extractants from treated HCV replicon cells was added to the PCR reactions for quantification of both HCV and BVDV RNA in the same PCR well. Experimental failure was flagged and rejected based on the level of BVDV RNA in each well. The level of HCV RNA in each well was calculated according to a standard curve run in the same PCR plate. The percentage of inhibition or decrease of HCV RNA level due to compound treatment was calculated using the DMSO or no compound control as 0% of inhibition. The IC50 (concentration at which 50% inhibition of HCV RNA level is observed) was calculated from the titration curve of any given compound.

HCV NS3-NS4A protease = biological target: T1, HCV NS3-NS4A protease (Hepatitis C virus genotype 1a, UniProt P27958); assay: HCV Ki Assay (enzyme, Example 5); assay type: biochemical; details: Ki values, tested according to Example 5 (enzyme); 5AB substrate, tNS3 with KK4A
T1 construct: The buffer, KK4A, DTT, and tNS3 were combined
Description: HPLC Microbore Method for Separation of 5AB Substrate and Products
NH2-Glu-Asp-Val-Val-(alpha)Abu-Cys-Ser-Met-Ser-Tyr-COOH
A stock solution of 20 mM 5AB (or concentration of your choice) was made in DMSO w/0.2M DTT. This was stored in aliquots at −20 C.
Buffer: 50 mM HEPES, pH 7.8; 20% glycerol; 100 mM NaCl
Total assay volume was 100 μL
The buffer, KK4A, DTT, and tNS3 were combined; distributed 78 μL each into wells of 96 well plate. This was incubated at 30 C for ˜5-10 min.
2.5 μL of appropriate concentration of test compound was dissolved in DMSO (DMSO only for control) and added to each well. This was incubated at room temperature for 15 min.
Initiated reaction by addition of 20 μL of 250 μM 5AB substrate (25 μM concentration is equivalent or slightly lower than the Km for 5AB).
Incubated for 20 min at 30 C.
Terminated reaction by addition of 25 μL of 10% TFA
Transferred 120 μL aliquots to HPLC vials
Separated SMSY product from substrate and KK4A by the following method:
Microbore Separation Method:
Instrumentation: Agilent 1100
Column thermostated chamber G1316A
Diode array detector G1315A
Solvent A=HPLC grade water+0.1% TFA
Solvent B=HPLC grade acetonitrile+0.1% TFA
Stop time: 17 min Post-run time: 10 min.

T1 sequence (P27958 1658-1711): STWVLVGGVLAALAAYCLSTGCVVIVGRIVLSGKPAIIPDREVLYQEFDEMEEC
T1 sequence (P27958 1027-1208): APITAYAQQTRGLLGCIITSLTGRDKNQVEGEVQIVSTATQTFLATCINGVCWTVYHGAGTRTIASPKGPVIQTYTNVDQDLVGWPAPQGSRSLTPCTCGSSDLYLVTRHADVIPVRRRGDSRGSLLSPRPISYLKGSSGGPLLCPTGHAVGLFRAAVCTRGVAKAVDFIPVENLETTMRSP

Row | Structure (SMILES) | IC50 [1] | Ki (HCV NS3-NS4A protease)
1 | CCC[C@H](NC(=O)[C@@H]1C[C@@H](Oc2ccc(Cl)cn2)CN1C(=O)[C@@H](NC(=O)[C@@H](NC(=O)c1cnccn1)C1CCCCC1)C(C)(C)C)C(=O)C(=O)NC1CC1 [Compound 59, Pyrazine-2-carboxylic acid ({1-[4-(5-chloro-pyridin-2-yloxy)-2-(1-cyclopropylaminooxalyl-butylcarbamoyl)-pyrrolidine-1-carbonyl]-2,2-dimethyl-propylcarbamoyl}-cyclohexyl-methyl)-amide] | < 500 nM | < 100 nM
2 | CCC[C@H](NC(=O)[C@@H]1C[C@@H](Oc2nc(C(F)(F)F)nc3ccccc23)CN1C(=O)[C@@H](NC(=O)[C@@H](NC(=O)c1cnccn1)C1CCCCC1)C(C)(C)C)C(=O)C(=O)NC1CC1 [Compound 60] | > 1000 nM | 100 to 300 nM
3 | CCC[C@H](NC(=O)[C@@H]1C[C@@H](Oc2ccc(C(=O)OC(C)C)cc2)CN1C(=O)[C@@H](NC(=O)[C@@H](NC(=O)c1cnccn1)C1CCCCC1)C(C)(C)C)C(=O)C(=O)NC1CC1 [Compound 61] | < 500 nM | < 100 nM
4 | CCC[C@H](NC(=O)[C@@H]1C[C@@H](Oc2ccc(OC)cc2Cl)CN1C(=O)[C@@H](NC(=O)[C@@H](NC(=O)c1cnccn1)C1CCCCC1)C(C)(C)C)C(=O)C(=O)NC1CC1 [Compound 64] | < 500 nM | < 100 nM
5 | CCC[C@H](NC(=O)[C@@H]1C[C@@H](Oc2ccc(CC#N)cc2)CN1C(=O)[C@@H](NC(=O)[C@@H](NC(=O)c1cnccn1)C1CCCCC1)C(C)(C)C)C(=O)C(=O)NC1CC1 [Compound 65] | < 500 nM | 100 to 300 nM
6 | CCC[C@H](NC(=O)[C@@H]1C[C@@H](Oc2cccc(Cl)c2)CN1C(=O)[C@@H](NC(=O)[C@@H](NC(=O)c1cnccn1)C1CCCCC1)C(C)(C)C)C(=O)C(=O)NC1CC1 [Compound 66] | < 500 nM | 100 to 300 nM
7 | CCC[C@H](NC(=O)[C@@H]1C[C@@H](Oc2ccnc3cc(C(F)(F)F)ccc23)CN1C(=O)[C@@H](NC(=O)[C@@H](NC(=O)c1cnccn1)C1CCCCC1)C(C)(C)C)C(=O)C(=O)NC1CC1 [Compound 67] | < 500 nM | < 100 nM
8 | CCC[C@H](NC(=O)[C@@H]1C[C@@H](Oc2ccc(C(=O)N3CCN(C(=O)OCc4ccccc4)CC3)cc2)CN1C(=O)[C@@H](NC(=O)[C@@H](NC(=O)c1cnccn1)C1CCCCC1)C(C)(C)C)C(=O)C(=O)NC1CC1 [Compound 70] | 500 to 1000 nM | 100 to 300 nM
9 | CCC[C@H](NC(=O)[C@@H]1C[C@@H](Oc2ccc(C(=O)N3CCNCC3)cc2)CN1C(=O)[C@@H](NC(=O)[C@@H](NC(=O)c1cnccn1)C1CCCCC1)C(C)(C)C)C(=O)C(=O)NC1CC1 [Compound 71] | > 1000 nM | 100 to 300 nM
